Experimental data: the supplement of paper PMC10307832

Experiments:
Assay in all cases: relative viability (nuclei count vs DMSO), 5 days (fraction); higher = more cells survive
MK-2206 + Alpelisib = compound: NC1(c2ccc(-c3nc4ccn5c(=O)[nH]nc5c4cc3-c3ccccc3)cc2)CCC1 [MK-2206] + Cc1nc(NC(=O)N2CCC[C@H]2C(N)=O)sc1-c1ccnc(C(C)(C)C(F)(F)F)c1 [Alpelisib] (partner 2 µM)
Procedure, shortened: (§1)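 Dosing by pin tool came one day after lung cancer cell lines were seeded in 1536-well plates, using either one drug or a fixed anchor-drug dose plus five library-drug doses (not always all listed) in √10 steps. After 5 days, nuclei were counted on 4× images. Relative viability is treated-well nuclei count divided by vehicle-well nuclei count, and values are medians of duplicate plates.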

MK-2206 + Linsitinib = compound: NC1(c2ccc(-c3nc4ccn5c(=O)[nH]nc5c4cc3-c3ccccc3)cc2)CCC1 [MK-2206] + C[C@]1(O)C[C@@H](c2nc(-c3ccc4ccc(-c5ccccc5)nc4c3)c3c(N)nccn32)C1 [Linsitinib] (partner 1 µM)
Procedure, shortened: as §1

Pictilisib + Lapatinib = compound: CS(=O)(=O)N1CCN(Cc2cc3nc(-c4cccc5[nH]ncc45)nc(N4CCOCC4)c3s2)CC1 [Pictilisib] + CS(=O)(=O)CCNCc1ccc(-c2ccc3ncnc(Nc4ccc(OCc5cccc(F)c5)c(Cl)c4)c3c2)o1 [Lapatinib] (partner 2 µM)
Procedure, shortened: as §1

MK-2206 + Trametinib = compound: NC1(c2ccc(-c3nc4ccn5c(=O)[nH]nc5c4cc3-c3ccccc3)cc2)CCC1 [MK-2206] + CC(=O)Nc1cccc(-n2c(=O)n(C3CC3)c(=O)c3c(Nc4ccc(I)cc4F)n(C)c(=O)c(C)c32)c1 [Trametinib] (partner 0.02 µM)
Procedure, shortened: as §1

MK-2206 + Foretinib = compound: NC1(c2ccc(-c3nc4ccn5c(=O)[nH]nc5c4cc3-c3ccccc3)cc2)CCC1 [MK-2206] + COc1cc2c(Oc3ccc(NC(=O)C4(C(=O)Nc5ccc(F)cc5)CC4)cc3F)ccnc2cc1OCCCN1CCOCC1 [Foretinib] (partner 0.25 µM)
Procedure, shortened: as §1

Cell Line | relative viability (MK-2206 + Alpelisib; first compound 0.01 µM) | relative viability (MK-2206 + Alpelisib; first compound 0.03162 µM) | relative viability (MK-2206 + Alpelisib; first compound 0.3162 µM) | relative viability (MK-2206 + Alpelisib; first compound 1 µM) | relative viability (MK-2206 + Linsitinib; first compound 0.01 µM) | relative viability (MK-2206 + Linsitinib; first compound 0.03162 µM) | relative viability (MK-2206 + Linsitinib; first compound 0.3162 µM) | relative viability (MK-2206 + Linsitinib; first compound 1 µM) | relative viability (Pictilisib + Lapatinib; first compound 0.02 µM) | relative viability (Pictilisib + Lapatinib; first compound 0.06325 µM) | relative viability (Pictilisib + Lapatinib; first compound 0.6325 µM) | relative viability (Pictilisib + Lapatinib; first compound 2 µM) | relative viability (MK-2206 + Trametinib; first compound 0.01 µM) | relative viability (MK-2206 + Trametinib; first compound 0.03162 µM) | relative viability (MK-2206 + Trametinib; first compound 0.3162 µM) | relative viability (MK-2206 + Trametinib; first compound 1 µM) | relative viability (MK-2206 + Foretinib; first compound 0.01 µM) | relative viability (MK-2206 + Foretinib; first compound 0.03162 µM) | relative viability (MK-2206 + Foretinib; first compound 0.3162 µM) | relative viability (MK-2206 + Foretinib; first compound 1 µM)
201T | 0.97 | 1.05 | 0.958 | 0.958 | 1.05 | 0.941 | 1.03 | 1.03 | 1.02 | 1.01 | 0.969 | 0.933 | 0.688 | 0.753 | 0.743 | 0.724 | 1.1 | 1.2 | 1.13 | 1.1
A549 | 0.841 | 0.791 | 0.534 | 0.529 | 0.657 | 0.651 | 0.574 | 0.512 | 0.93 | 0.906 | 0.595 | 0.606 | – | – | – | – | 0.752 | 0.817 | 0.914 | 0.907
A-427 | 1.12 | 1.12 | 1.06 | 1.08 | 1.13 | 1.09 | 1.14 | 1.17 | 0.98 | 1.09 | 1 | 0.932 | 0.819 | 0.748 | 0.666 | 0.62 | 1.05 | 1.2 | 1.16 | 1.15
ABC-1 | 0.964 | 0.915 | 0.848 | 0.812 | 0.799 | 0.742 | 0.881 | 0.868 | 1.08 | 1.27 | 1.04 | 0.631 | – | – | – | – | 1.16 | 0.965 | 1.17 | 1.07
BEN | 0.998 | 1.11 | 1.08 | 1.1 | 0.924 | 1.01 | 1.04 | 1.03 | 0.715 | 0.755 | 0.844 | 0.498 | 1.17 | 1.2 | 1.23 | 1.05 | 0.687 | 0.76 | 0.709 | 0.606
CAL-12T | 1.04 | 1.03 | 1.05 | 0.895 | 0.742 | 0.877 | 0.761 | 0.739 | 0.6 | 0.638 | 0.653 | 0.468 | 0.406 | 0.307 | 0.307 | 0.313 | 1.07 | 0.962 | 1.15 | 1.19
COR-L23 | 0.82 | 0.904 | 0.681 | 0.686 | 0.909 | 0.996 | 1 | 0.693 | 1.2 | 1.08 | 0.993 | 0.77 | 0.547 | 0.558 | 0.522 | 0.476 | 1.1 | 0.959 | 1.12 | 0.948
COR-L 105 | 0.98 | 0.951 | 0.825 | 0.677 | 0.941 | 0.895 | 0.67 | 0.629 | 0.394 | 0.401 | 0.338 | 0.325 | 0.451 | 0.439 | 0.381 | 0.433 | 1.08 | 0.856 | 0.984 | 1.06
Calu-6 | 1.13 | 1.01 | 0.994 | 0.909 | – | 0.961 | 0.963 | 0.926 | 1.15 | 1.19 | 0.898 | 0.911 | – | – | – | – | 0.939 | 0.99 | 0.837 | 0.937
ChaGo-K-1 | – | – | – | – | – | – | – | – | – | – | – | – | 0.894 | 0.867 | 0.881 | 0.904 | 0.969 | 0.974 | 0.922 | 0.93
EBC-1 | 0.767 | 0.843 | 0.388 | 0.28 | 0.795 | 0.951 | 0.681 | 0.557 | 0.237 | 0.208 | 0.237 | 0.204 | – | – | – | – | 0.0881 | 0.12 | 0.117 | 0.106
EKVX | 0.761 | 0.904 | 0.843 | 0.82 | 0.96 | 1.09 | 0.846 | 0.801 | 0.212 | 0.215 | 0.186 | 0.136 | 0.326 | 0.398 | 0.275 | 0.289 | 0.877 | 0.673 | 0.855 | 0.387
EMC-BAC-2 | 0.768 | 0.764 | 0.729 | 0.693 | 0.811 | 0.821 | 0.769 | 0.748 | 0.906 | 0.924 | 0.735 | 0.575 | 0.863 | 0.799 | 0.78 | 0.673 | 1.06 | 1.01 | 0.905 | 0.885
EPLC-272H | 0.993 | 0.851 | – | 0.929 | 1.17 | 1.18 | – | 1.15 | 1.03 | 1.09 | 0.658 | 0.513 | 0.266 | 0.307 | 0.298 | 0.312 | 0.811 | 0.686 | 0.649 | 0.633
H3255 | 0.694 | 0.748 | 0.53 | 0.6 | 0.975 | 0.924 | 0.847 | 0.726 | 0.237 | 0.222 | 0.153 | 0.124 | 0.523 | 0.618 | 0.493 | 0.502 | 0.866 | 0.971 | 0.731 | 0.746
HARA | 0.789 | 0.745 | 0.611 | 0.582 | 0.907 | 0.919 | 0.906 | 0.922 | 0.703 | 0.724 | 0.378 | 0.354 | 0.63 | 0.553 | 0.677 | 0.788 | 0.944 | 0.951 | 0.929 | 0.809
HCC-15 | 0.836 | 0.884 | 0.859 | 0.832 | 0.92 | 0.897 | 0.846 | 0.852 | 0.936 | 0.91 | 0.789 | 0.692 | 0.362 | 0.387 | 0.309 | 0.295 | 0.971 | 1.04 | 0.958 | 0.892
